Earlier results as cited in patent US4195171A, “Derivatives of an antibiotic XK-62-2 and process for the production thereof” (Abbott Laboratories, priority 1975, dated 1980).

Conditions: cited from earlier work

SMILES: CNCC1CCC(N)C(OC2C(N)CC(N)C(OC3OCC(C)(O)C(NC)C3O)C2O)O1 (centres unmarked) [XK-62-2]
- solubility in acetone (acetone): slightly soluble
- solubility in benzene (benzene): insoluble
- solubility in chloroform (chloroform): insoluble
- solubility in ethanol (ethanol): slightly soluble
- solubility in ethyl acetate (ethyl acetate): insoluble
- solubility in methanol (methanol): freely soluble
- solubility in n-hexane (n-hexane): insoluble
- solubility in water (water): freely soluble
